The structures appear in SMILES notation.

The source of these data is paper PMC5624297, “Trichoplax adhaerens reveals a network of nuclear receptors sensitive to 9-cis-retinoic acid at the base of metazoan evolution” (PeerJ, 2017).

This assay deals with T1, TaRXR (T. adhaerens RXR; GST-TaRXR) (Trichoplax adhaerens, UniProt A0A290WNL1).
T1 construct: full-length RXR cDNA in pGEX-2T, E. coli BL21 pLysS; N-terminal GST fusion on glutathione beads or thrombin-cleaved; starts MEDRSFK (from printed primer)
T1 sequence (A0A290WNL1 1-345): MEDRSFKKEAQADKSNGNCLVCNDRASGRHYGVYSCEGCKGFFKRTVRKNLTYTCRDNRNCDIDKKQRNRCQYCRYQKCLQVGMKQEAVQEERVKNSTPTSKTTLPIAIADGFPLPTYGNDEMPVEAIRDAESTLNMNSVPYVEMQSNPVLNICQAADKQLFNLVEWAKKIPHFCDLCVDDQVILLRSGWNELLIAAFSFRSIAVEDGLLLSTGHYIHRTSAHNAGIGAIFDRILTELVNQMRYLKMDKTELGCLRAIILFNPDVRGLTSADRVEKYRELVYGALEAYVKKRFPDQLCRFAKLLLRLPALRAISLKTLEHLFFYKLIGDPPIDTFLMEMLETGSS
Kind of assay: radioligand saturation binding (GST-TaRXR on beads) and competition (thrombin-cleaved TaRXR). The note with it: labelled compound (3H); 50 mM Tris-HCl pH 7.4, 1 mM EDTA, 120 mM KCl, 5 mM DTT, 8% glycerol, 0.3-0.5% CHAPS; 2 h on ice in dark.

Turning to `CC1=C(/C=C/C(C)=C\C=C\C(C)=C\C(=O)O)C(C)(C)CCC1` [9-cis-retinoic acid], the “radioligand saturation binding (GST-TaRXR on beads) and competition (thrombin-cl)” value is “TaRXR prepared as thrombin cleaved TaRXR or GST-TaRXR binds 9-cis-RA with high affinity and specificity”.
